For one series, the system named is KG-1. Put plainly: Antiproliferative activity against human KG-1 cells assessed as reduction in cell viability incubated for 72 hrs by MTT assay. It counts as functional, cell-based. The note with it: KG-1, 72 h.
For a further series, the system named is Rhizoctonia solani. Put plainly: Antifungal activity Rhizoctonia solani assessed as fungal growth inhibition measured after 4 to 8 days. Format: functional, organism-based.
A further series concerns Phytophthora nicotianae. Put plainly: Antifungal activity against Phytophthora nicotianae assessed a fungal growth inhibition measured after 4 to 8 days. Format: functional, organism-based.
Another series relates to BJ. The series is described as follows: Cytotoxicity against human BJ cells assessed as cell growth inhibition measured after 72 hrs by Celltiter-Glo assay. It counts as functional, cell-based.
The next series concerns LN-229. The series is described as follows: Cytotoxicity against human LN-229 cells assessed as reduction in cell growth incubated for 72 hrs by Celltiter-Glo assay. The note with it: LN-229, 72 h. It counts as functional, cell-based.
Series [1] deals with SW-620. The series is described as follows: Antiproliferative activity against human SW-620 cells assessed as reduction in cell growth measured after 3 to 4 days by MTT assay. It counts as functional, cell-based.
Series [2] relates to MCF7. The series is described as follows: Antiproliferative activity against human MCF7 cells assessed as reduction in cell growth measured after 3 to 4 days by MTT assay. It counts as functional, cell-based.
A short description of series [3]: Antiproliferative activity against human WI-38 cells assessed as reduction in cell growth measured after 3 to 4 days by MTT assay. Format: toxicity, cell-based.
The test system of the next series is L1210. The series is described as follows: Antiproliferative activity against mouse L1210 cells assessed as reduction in cell viability measured after 3 to 4 days by MTT assay. Format: functional, cell-based.
Series [4] deals with CCRF-CEM. The series is described as follows: Antiproliferative activity against human CEM cells assessed as reduction in cell viability measured after 3 to 4 days by MTT assay. It counts as functional, cell-based.
The next series deals with A549. Put plainly: Antiproliferative activity against human A549 cells assessed as reduction in cell viability measured after 3 to 4 days by MTT assay. It counts as functional, cell-based.
A further series deals with HepG2. The series is described as follows: Antiproliferative activity against human HepG2 cells assessed as reduction in cell viability measured after 3 to 4 days by MTT assay. It counts as functional, cell-based.
Series [5] in a line: Antiproliferative activity against human Molt 4/C8 cells assessed as reduction in cell growth measured after 3 to 4 days by MTT assay. The note with it: Molt4/C8. It counts as functional, cell-based.
The test system of series [6] is HeLa. Put plainly: Antiproliferative activity against human HeLa cells assessed as reduction in cell viability measured after 3 to 4 days by MTT assay. Format: functional, cell-based.
Series [7] has as its system SW-620. Put plainly: Antiproliferative activity against human SW620 cells assessed as reduction in cell viability incubated for 72 hrs by MTT assay. The conditions noted are these: SW-620, 72 h. It counts as functional, cell-based.
Series [8] relates to HCT-116. Put plainly: Antiproliferative activity against human HCT-116 cells assessed as reduction in cell viability incubated for 72 hrs by MTT assay. Format: functional, cell-based. The note with it: HCT-116, 72 h.
In another series the test system is A-375. The series is described as follows: Antiproliferative activity against human A-375 cells assessed as reduction in cell growth by MTT assay. It counts as functional, cell-based.
Series [9] concerns MCF7. Put plainly: Antiproliferative activity against human MCF7 cells assessed as reduction in cell growth by MTT assay. Format: functional, cell-based.
Another series deals with MIA PaCa-2. The series is described as follows: Antiproliferative activity against human MIA PaCa-2 cells assessed as reduction in cell growth by MTT assay. Format: functional, cell-based.
The test system of series [10] is HCT-116. The series is described as follows: Antiproliferative activity against human HCT-116 cells assessed as reduction in cell growth by MTT assay. Format: functional, cell-based.
The subject of another series is BGC-823. Put plainly: Antiproliferative activity against human BGC-823 cells assessed as reduction in cell growth by MTT assay. It counts as functional, cell-based.
Series [11] deals with MCF7. Put plainly: Cytotoxicity against human MCF7 cells assessed as reduction in cell growth incubated for 24 hrs by MTT assay. Format: functional, cell-based. The conditions noted are these: MCF7, 24 h.
The test system of series [12] is HCT-116. The series is described as follows: Cytotoxicity against human HCT-116 cells assessed as cell growth inhibition measured after 48 hrs by MTT assay. The note with it: HCT-116, 48 h. It counts as functional, cell-based.
Series [13] has as its system MCF7. The series is described as follows: Cytotoxicity against human MCF7 cells assessed as cell growth inhibition measured after 48 hrs by MTT assay. Format: functional, cell-based. The conditions noted are these: MCF7, 48 h.
In another series the test system is K562. Put plainly: Cytotoxicity against human K562 cells assessed as cell growth inhibition measured after 48 hrs by MTT assay. It counts as functional, cell-based. The conditions noted are these: K562, 48 h.
Series [14] relates to HCT-116. Put plainly: Antiproliferative activity against human HCT-116 cells assessed as inhibition of cell growth at 0.1 uM incubated for 24 hrs by SRB assay relative to control. Format: functional. Further details: scale not given: the % may be the effect or the level left.
Series [15] deals with MCF7. Put plainly: Antiproliferative activity against human MCF7 cells assessed as inhibition of cell growth at 0.1 uM incubated for 24 hrs by SRB assay relative to control. The arrangement: scale not given: the % may be the effect or the level left. It counts as functional.
The subject of the next series is MDA-MB-231. The series is described as follows: Antiproliferative activity against human MDA-MB-231 cells assessed as inhibition of cell growth at 0.1 uM incubated for 24 hrs by SRB assay relative to control. It counts as functional. The arrangement: scale not given: the % may be the effect or the level left.
A further series has as its target Histone deacetylase 3 (Homo sapiens, UniProt O15379). The series is described as follows: Inhibition of human recombinant HDAC3.
In the next series the target is Histone deacetylase 2 (Homo sapiens, UniProt Q92769). The series is described as follows: Inhibition of human recombinant HDAC2.
The next series has as its target Histone deacetylase 1 (Homo sapiens, UniProt Q13547). The series is described as follows: Inhibition of human recombinant HDAC1.
Series [16] relates to MCF7. Put plainly: Antiproliferative activity against human MCF7 cells assessed as reduction in cell viability incubated for 48 hrs by MTT assay. The conditions noted are these: MCF7, 48 h. Format: functional, cell-based.
In a further series the test system is Huh-7. Put plainly: Antiproliferative activity against human Huh-7 cells assessed as reduction in cell viability incubated for 48 hrs by MTT assay. It counts as functional, cell-based. The conditions noted are these: Huh-7, 48 h.
Series [17] deals with CCRF-CEM. The series is described as follows: Growth inhibition of human CCRF-CEM cells. It counts as functional, cell-based. The conditions noted are these: pooled result: one value given for 60 cell lines, strains, targets or settings.
Series [18] is described as follows: Antiproliferative activity against human WI-38 cells assessed as cell growth inhibition measured after 72 hrs by MTT assay. It counts as toxicity, cell-based.
The test system of another series is MGC-803. The series is described as follows: Antiproliferative activity against human MGC-803 cells assessed as inhibition of cell growth incubated for 72 hrs by MTT assay. Format: functional, cell-based. The conditions noted are these: MGC-803, 72 h.
The subject of the next series is L02. The series is described as follows: Antiproliferative activity against human HL7702 cells assessed as cell growth inhibition measured after 72 hrs by MTT assay. It counts as functional, cell-based. The note with it: L02, 72 h.
A further series has as its system T-24. The series is described as follows: Antiproliferative activity against human T-24 cells assessed as inhibition of cell growth incubated for 72 hrs by MTT assay. Format: functional, cell-based. The conditions noted are these: T-24, 72 h.
Series [19] deals with HeLa. Put plainly: Antitumor activity against human HeLa cells assessed as cell growth inhibition incubated for 72 hrs by MTT assay. It counts as functional, cell-based.

This note sets out measurements from ChEMBL document CHEMBL5625161, “Pharmacological activity and mechanism of pyrazines” (Eur J Med Chem, 2023).

Converted amounts (≈) assume the structure as drawn. A value given as a limit tells only on which side of the number the result lay.

Sequence of Histone deacetylase 2 (Q92769 whole entry): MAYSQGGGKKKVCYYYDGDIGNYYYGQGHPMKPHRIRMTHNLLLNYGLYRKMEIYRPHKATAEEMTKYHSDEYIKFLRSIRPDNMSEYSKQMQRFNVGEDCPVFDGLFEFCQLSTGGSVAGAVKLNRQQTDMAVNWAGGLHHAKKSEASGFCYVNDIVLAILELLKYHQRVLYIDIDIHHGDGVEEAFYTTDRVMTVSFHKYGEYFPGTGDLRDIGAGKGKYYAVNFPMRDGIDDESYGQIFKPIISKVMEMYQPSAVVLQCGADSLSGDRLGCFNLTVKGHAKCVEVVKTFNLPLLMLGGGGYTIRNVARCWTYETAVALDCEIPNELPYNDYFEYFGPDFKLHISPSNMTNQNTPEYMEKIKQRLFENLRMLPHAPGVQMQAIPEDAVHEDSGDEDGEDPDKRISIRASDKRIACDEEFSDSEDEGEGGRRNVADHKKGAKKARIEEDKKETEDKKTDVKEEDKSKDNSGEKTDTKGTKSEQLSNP
Sequence of Histone deacetylase 3 (O15379 whole entry): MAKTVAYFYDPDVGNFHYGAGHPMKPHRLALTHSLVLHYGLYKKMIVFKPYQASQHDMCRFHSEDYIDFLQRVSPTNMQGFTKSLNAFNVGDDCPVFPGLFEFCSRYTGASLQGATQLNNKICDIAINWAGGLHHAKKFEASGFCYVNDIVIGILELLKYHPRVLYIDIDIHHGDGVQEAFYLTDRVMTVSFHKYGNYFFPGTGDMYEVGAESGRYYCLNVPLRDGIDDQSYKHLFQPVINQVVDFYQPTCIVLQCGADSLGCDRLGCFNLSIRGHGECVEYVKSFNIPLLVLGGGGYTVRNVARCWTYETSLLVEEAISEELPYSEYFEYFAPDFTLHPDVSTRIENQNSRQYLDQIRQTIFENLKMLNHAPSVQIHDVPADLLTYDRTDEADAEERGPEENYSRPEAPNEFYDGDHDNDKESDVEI
Sequence of Histone deacetylase 1 (Q13547 whole entry): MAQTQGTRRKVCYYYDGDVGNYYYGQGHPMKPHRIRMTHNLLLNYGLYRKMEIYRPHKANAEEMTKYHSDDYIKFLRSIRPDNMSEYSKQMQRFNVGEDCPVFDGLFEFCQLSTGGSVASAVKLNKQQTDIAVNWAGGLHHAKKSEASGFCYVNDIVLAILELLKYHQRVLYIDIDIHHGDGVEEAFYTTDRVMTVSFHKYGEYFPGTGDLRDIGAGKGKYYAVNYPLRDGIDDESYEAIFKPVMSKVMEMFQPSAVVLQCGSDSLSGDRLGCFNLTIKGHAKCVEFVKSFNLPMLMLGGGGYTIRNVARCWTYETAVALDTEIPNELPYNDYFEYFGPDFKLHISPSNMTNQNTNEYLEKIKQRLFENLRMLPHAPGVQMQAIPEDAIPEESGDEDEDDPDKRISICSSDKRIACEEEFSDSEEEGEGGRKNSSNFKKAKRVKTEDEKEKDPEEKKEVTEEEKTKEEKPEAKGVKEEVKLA

For the compound `O=S(=O)(c1cn(CCF)cn1)n1ccc2ncc(-c3cn[nH]c3)nc21`, the IC50 in the series on KG-1 came out at 0.0291 µM.

Consider `CC(OC(=O)c1ccccc1)c1cnccn1` (centres undefined), for which the concentration for a half-maximal effect (EC50) in the series with Rhizoctonia solani is 0.019 µg/mL (≈ 0.0832 µM); with Phytophthora nicotianae it was 0.187 µg/mL (≈ 0.819 µM).

In the case of `N#Cc1cncc(Cl)n1`, the values for the half-inhibitory concentration (IC50) in the series on BJ and in the series on LN-229 were 95.7 µM and 18.2 µM, respectively.

`O=C(Nc1ccc(Br)cc1)Nc1ccc(Oc2cnc(C(=O)NC3CCCC3)cn2)cc1`: the half-maximal inhibitory concentration (IC50) was 39.6 µM with SW-620 [1]; above 250 µM with MCF7 [2]; above 100 µM in series [3]; 87 µM in the series with L1210; above 250 µM in the series on CCRF-CEM [4]; 0.9 µM in the series with A549. The IC50 is 0.7 µM in the series on HepG2, above 250 µM in [5] and 0.6 µM with HeLa [6].

Turning to `O=C(Nc1ccc2ccccc2c1)c1c(Cc2ccccc2)n2nc3ccccc3c2c(=O)n1C1CC1`, the IC50 with SW-620 [7] was 1.8 µM; in the series with HCT-116 [8], 1.3 µM.

`COc1ccc(OCCN2CCn3nnc(-c4cc(C(C)C)c(O)cc4O)c3C2)cc1`: the half-maximal inhibitory concentration (IC50) stood at 2.29 µM in the series on A-375; 5.58 µM in the series on MCF7 [9]; 6.74 µM in the series with MIA PaCa-2; 10.2 µM in the series on HCT-116 [10]; 4.15 µM in the series with BGC-823.

For the compound `CN(C)CCNc1ccc2c3c(cccc13)-c1nc(C#N)c(C#N)nc1-2`, in the series with MCF7 [11], the half-inhibitory concentration (IC50) is 4.6 µM.

Take `c1ccc(CNc2c(-c3ccncc3)nc3cnccn23)cc1`: the half-maximal inhibitory concentration (IC50) in the series on HCT-116 [12], in the series with MCF7 [13] and with K562 was 6.66 µM in each case.

For the compound `Nc1nc(N2CCCC2CC2CCCC2CO)cnc1-c1cccc(Cl)c1Cl` (centres undefined), the Activity with HCT-116 [14] is 27%; in the series on MCF7 [15], 30%; in the series with MDA-MB-231, 32%.

Consider `COc1cnc(C(=O)NCC2(C)CCCC3(C)c4ccc(C(C)C)cc4CCC23)cn1` (centres undefined), for which the IC50 on Histone deacetylase 3 was 0.31 µM; at Histone deacetylase 2, 0.28 µM; at Histone deacetylase 1, 0.13 µM; in the series with MCF7 [16] it was 6.66 µM.

Take `N=C(NC(=O)c1nc(Cl)c(N)nc1N)NC(=O)c1c(Cl)cccc1Cl`: in the series on Huh-7, the IC50 is 12.8 µM.

In turn, `c1cn2cc(-c3ccc4ncn(C5CCCCC5)c4c3)nc(-c3ccc4ncn(C5CCCCC5)c4c3)c2n1` displayed an IC50 with CCRF-CEM [17] of 0.81 µM.

`Clc1ccc(-c2nc3oc4ccccc4c3nc2-c2ccc(Cl)cc2)cc1`: the half-maximal inhibitory concentration (IC50) at 72 h in series [18] was above 40 µM. Besides, the IC50 in the series on MGC-803 was 20.2 µM; in the series with L02, 25.4 µM; with T-24 it was 12.5 µM; in the series on HeLa [19], 10 µM.
